Source: ChEMBL document CHEMBL5380850, “Discovery of the First Raptor (Regulatory-Associated Protein of mTOR) Inhibitor as a New Type of Antiadipogenic Agent” (J Med Chem, 2023)
The source made the active and inactive calls. The calls are words filed in the database; no cut-off is given here.

What was measured:
3T3-L1 [1] = test: Anti-adipogenic activity against mouse 3T3-L1 cells assessed as decrease in triglyceride level by Oil Red O staining based spectroscopic analysis; format: functional, cell-based
3T3-L1 [2] = test: Anti-adipogenic activity against mouse 3T3-L1 cells assessed as downregulation of DGAT2 protein expression level at 0.1 to 1 uM incubated for 6 days by Western blot analysis; format: functional, cell-based; details: dose 0.1-1 µM, time 6.0 day
3T3-L1 [3] = test: Anti-adipogenic activity against mouse 3T3-L1 cells at adipogenesis stage assessed as decrease in triglyceride level at 1 uM and measured upto 3 days by Oil Red O staining based spectroscopic analysis; format: functional, cell-based; details: time <= 3.0 day
Mus musculus [4] = test: Anti-obesity activity in high fat diet-induced obese C57BL/6J mouse model assessed as increase in COX4 expression level in liver at 40 mg/kg, ip administered every two days for 46 days by immunohistochemical analysis; format: functional, organism-based; details: time 46.0 day
Mus musculus [5] = test: Anti-obesity activity in high fat diet-induced obese C57BL/6J mouse assessed as reduction in visceral fat content by measuring inguen white adipose tissue weight at 40 mg/kg, ip administered every two days for 46 days; format: functional, organism-based; details: time 46.0 day
3T3-L1 [6] = test: Anti-adipogenic activity against mouse 3T3-L1 cells assessed as downregulation of PPARgamma mRNA expression level at 0.1 to 1 uM incubated for 24 hrs by RT-qPCR analysis; format: functional, cell-based; details: dose 0.1-1 µM
mTORC1 (Mus musculus) [7] = biological target: mTORC1 (Mus musculus) (UniProt Q9JLN9); test: Inhibition of mTORC1 formation in mouse 3T3-L1 cells assessed as decrease in phosphorylated-S6K1 expression level at 10 uM incubated for 24 hrs by Western blot analysis; format: cell-based
mTORC1 (Mus musculus) [8] = biological target: mTORC1 (Mus musculus) (UniProt Q9JLN9); test: Inhibition of mTORC1 formation in mouse 3T3-L1 cells assessed as decrease in S6K1 expression level at 10 uM incubated for 24 hrs by Western blot analysis; format: cell-based
3T3-L1 [9] = test: Anti-adipogenic activity against mouse 3T3-L1 cells assessed as downregulation of C/EBPalpha mRNA expression level at 0.1 to 1 uM incubated for 24 hrs by RT-qPCR analysis; format: functional, cell-based; details: dose 0.1-1 µM
mTORC1 (Mus musculus) [10] = biological target: mTORC1 (Mus musculus) (UniProt Q9JLN9); test: Inhibition of mTORC1 formation in siRNA mediated Raptor knockdown mouse 3T3-L1 cells assessed as decrease in phosphorylated 4E-BP1 expression level at 10 uM incubated for 24 hrs by Western blot analysis; format: cell-based
3T3-L1 [11] = test: Anti-adipogenic activity in mouse 3T3-L1 cells assessed as increase in mCherry-LC3B-labeled autophagosomes at 10 uM by Immunofluorescence analysis; format: functional, cell-based
Mus musculus [12] = test: Anti-obesity activity in high fat diet-induced obese C57BL/6J mouse model assessed as increase in glucose clearance at 40 mg/kg, ip administered every two days for 3 weeks pretreated with compound and followed by glucose challenge and measured upto 120 mins by IPGTT assay; format: functional, organism-based
Mus musculus [13] = test: Anti-obesity activity in high fat diet-induced obese C57BL/6J mouse model assessed as reduction in hepatic steatosis by measuring lipid deposition at 40 mg/kg, ip administered every two days for 46 days; format: functional, organism-based; details: time 46.0 day
[14] = biological target: Regulatory-associated protein of mTOR (Mus musculus) (UniProt Q8K4Q0); test: Binding affinity to Raptor in mouse 3T3-L1 cells at 50 uM incubated overnight by pull-down assay
mTORC1 (Mus musculus) [15] = biological target: mTORC1 (Mus musculus) (UniProt Q9JLN9); test: Inhibition of mTORC1 formation in siRNA mediated Raptor knockdown mouse 3T3-L1 cells assessed as decrease in phosphorylaed-S6K1 expression level at 10 uM incubated for 24 hrs by Western blot analysis; format: cell-based

Sequence of Regulatory-associated protein of mTOR (Mus musculus) (Q8K4Q0 whole entry, looked up): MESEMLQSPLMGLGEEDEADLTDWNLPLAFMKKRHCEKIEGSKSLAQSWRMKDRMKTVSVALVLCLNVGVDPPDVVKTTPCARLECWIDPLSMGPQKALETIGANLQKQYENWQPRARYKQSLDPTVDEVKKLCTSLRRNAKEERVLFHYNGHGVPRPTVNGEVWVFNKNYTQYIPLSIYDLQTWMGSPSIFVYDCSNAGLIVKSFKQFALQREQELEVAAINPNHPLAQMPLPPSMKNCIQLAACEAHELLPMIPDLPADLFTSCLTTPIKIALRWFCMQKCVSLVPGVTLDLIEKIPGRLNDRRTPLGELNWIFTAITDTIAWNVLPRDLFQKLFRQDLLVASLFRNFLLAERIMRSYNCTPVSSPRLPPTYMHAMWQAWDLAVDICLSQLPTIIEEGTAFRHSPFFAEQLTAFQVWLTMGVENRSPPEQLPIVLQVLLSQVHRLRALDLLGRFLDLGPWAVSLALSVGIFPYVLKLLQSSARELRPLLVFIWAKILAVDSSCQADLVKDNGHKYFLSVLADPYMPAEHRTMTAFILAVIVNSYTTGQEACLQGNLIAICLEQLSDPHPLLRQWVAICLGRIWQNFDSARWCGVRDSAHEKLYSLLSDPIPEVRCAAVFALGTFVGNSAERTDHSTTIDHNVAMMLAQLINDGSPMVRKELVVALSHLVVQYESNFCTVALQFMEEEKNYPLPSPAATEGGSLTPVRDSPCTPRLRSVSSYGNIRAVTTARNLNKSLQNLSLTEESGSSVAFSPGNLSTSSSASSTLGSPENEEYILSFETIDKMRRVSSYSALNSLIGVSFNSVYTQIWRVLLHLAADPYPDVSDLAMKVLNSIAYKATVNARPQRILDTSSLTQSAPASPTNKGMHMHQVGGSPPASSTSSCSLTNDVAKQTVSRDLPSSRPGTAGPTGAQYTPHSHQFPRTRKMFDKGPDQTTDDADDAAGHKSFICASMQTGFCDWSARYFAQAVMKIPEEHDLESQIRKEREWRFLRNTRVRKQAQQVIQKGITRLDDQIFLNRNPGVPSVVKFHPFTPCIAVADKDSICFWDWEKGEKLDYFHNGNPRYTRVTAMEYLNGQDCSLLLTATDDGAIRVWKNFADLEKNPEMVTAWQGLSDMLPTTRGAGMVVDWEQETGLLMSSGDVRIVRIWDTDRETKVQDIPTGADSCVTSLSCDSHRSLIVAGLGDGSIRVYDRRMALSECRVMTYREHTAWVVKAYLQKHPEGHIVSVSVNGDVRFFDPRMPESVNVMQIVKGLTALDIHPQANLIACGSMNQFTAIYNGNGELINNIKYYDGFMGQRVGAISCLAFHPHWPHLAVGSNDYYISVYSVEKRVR

C=C(C)[C@@]12OC3(c4ccccc4)O[C@@H]1[C@@H]1[C@H](O)[C@](Cl)(COC(=O)c4ccccc4)[C@@H](O)[C@]4(O)C(=O)C(C)=C[C@H]4[C@@]1(O3)[C@H](C)[C@H]2OC(C)=O
EC50 (3T3-L1 [1]): 97 nM
Activity (3T3-L1 [2]): Active
Activity (3T3-L1 [3]): inactive
Activity (Mus musculus [4]): Active
Activity (Mus musculus [5]): Active
Activity (3T3-L1 [6]): Active
inhibition (mTORC1 (Mus musculus) [7]): Active
inhibition (mTORC1 (Mus musculus) [8]): Active
Activity (3T3-L1 [9]): Active
inhibition (mTORC1 (Mus musculus) [10]): Active
Activity (3T3-L1 [11]): Active
Activity (Mus musculus [12]): Active
Activity (Mus musculus [13]): Active
Activity [14]: Active
inhibition (mTORC1 (Mus musculus) [15]): Active
